Test results: ChEMBL document CHEMBL1141866, “Synthesis and evaluation of thiazole carboxamides as vanilloid receptor 1 (TRPV1) antagonists” (Bioorg Med Chem Lett, 2005)

Legend:
[1] = Ability to block acid-induced calcium influx in rat-human chimera TRPV1 expressing CHO cells; assay type: cell-based
[2] = Ability to block capsaicin-induced calcium influx in rat-human chimera TRPV1 expressing CHO cells; assay type: cell-based

Row | IC50 [1] [nM] | IC50 [2] [nM] | SMILES
1 | 460 | 400 | O=C(Nc1ccc(Br)cc1)c1csc(Cc2c(Cl)cccc2Cl)n1
2 | 130 | 110 | O=C(Nc1ccc(C(F)(F)F)nc1)c1csc(Cc2c(Cl)cccc2Cl)n1
3 | 48 | 51 | O=C(Nc1ccc(C(F)(F)F)cc1)c1csc(Nc2c(Cl)cccc2Cl)n1
4 | 1280 | 870 | O=C(Nc1ccc(C(F)(F)F)cc1)c1csc(Oc2c(Cl)cccc2Cl)n1
5 | 520 | 370 | CC(C)c1ccc(NC(=O)c2csc(Cc3c(Cl)cccc3Cl)n2)cc1
6 | > 4000 | > 4000 | O=C(Nc1ccc(C(F)(F)F)cc1)c1csc(CCc2c(Cl)cccc2Cl)n1
7 | > 4000 | > 4000 | COc1ccc(NC(=O)c2csc(Cc3c(Cl)cccc3Cl)n2)cc1
8 | 82 | 90 | Cc1cccc(C)c1Nc1nc(C(=O)Nc2ccc(C(F)(F)F)cc2)cs1
9 | 350 | 290 | O=C(Nc1ccc(C(F)(F)C(F)(F)F)cc1)c1csc(Cc2c(Cl)cccc2Cl)n1
10 | > 4000 |  | Cc1nc(Cc2c(Cl)cccc2Cl)sc1C(=O)Nc1ccc(C(F)(F)F)cc1
11 | > 4000 | > 4000 | COc1ccc(NC(=O)c2csc(Cc3c(Cl)cccc3Cl)n2)cn1
12 | 1450 | 810 | CCc1ccc(NC(=O)c2csc(Cc3c(Cl)cccc3Cl)n2)cc1
13 | > 4000 | > 4000 | O=C(Nc1ccc(Br)cn1)c1csc(Cc2c(Cl)cccc2Cl)n1
14 | 880 | 360 | O=C(Nc1ccc(C(F)(F)F)cc1)c1csc(Nc2c(Cl)cncc2Cl)n1
15 | 200 | 62 | O=C(Nc1ccc(C(F)(F)F)cc1)c1coc(Cc2c(Cl)cccc2Cl)n1
16 | 88 |  | O=C(Nc1ccc(C(F)(F)F)cc1)c1csc(Cc2c(Cl)cccc2Cl)n1
17 | 1780 | 790 | O=C(Nc1ccc(C(F)(F)F)cc1)c1cnc(Cc2c(Cl)cccc2Cl)s1
18 | > 4000 | > 4000 | O=C(Nc1ccc(C(F)(F)F)cc1)c1csc(-c2c(Cl)cccc2Cl)n1
19 | > 4000 | > 4000 | O=C(Nc1ccc(C(F)(F)F)cc1)c1csc(Nc2c(Cl)cccc2C(F)(F)F)n1
20 | 1410 | 1750 | O=C(Nc1ccc(C(F)(F)F)cc1)c1csc(Nc2ccccc2Cl)n1
21 | > 4000 | > 4000 | O=C(Nc1ccccc1)c1csc(Cc2c(Cl)cccc2Cl)n1
22 | 230 | 230 | O=C(Nc1ccc(C(F)(F)F)cc1)c1c[nH]c(Cc2c(Cl)cccc2Cl)n1
23 | > 4000 | > 4000 | O=C(Nc1cccc(Br)c1)c1csc(Cc2c(Cl)cccc2Cl)n1
24 | 1270 | > 4000 | CN(C)c1ccc(NC(=O)c2csc(Cc3c(Cl)cccc3Cl)n2)cc1
25 | 720 | 450 | N#Cc1ccc(NC(=O)c2csc(Cc3c(Cl)cccc3Cl)n2)cc1
26 | 1020 | 1010 | Cn1cc(C(=O)Nc2ccc(C(F)(F)F)cc2)nc1Cc1c(Cl)cccc1Cl
27 | 300 | 570 | CC(C)(C)c1ccc(NC(=O)c2csc(Cc3c(Cl)cccc3Cl)n2)cc1
28 | > 4000 | > 4000 | O=C(Nc1ccccc1Br)c1csc(Cc2c(Cl)cccc2Cl)n1
